From patent publication US9796711B2, “Substituted pyrazolo[3,4-b]pyridin-6-carboxylic acids and method of use” (AbbVie S.àr.l., priority 2015, dated 2017)

Experiments:
[1] = target: T1, CFTR ΔF508 (Homo sapiens, UniProt P13569, DEL508-508); experiment: Acute TECC assay on primary bronchial epithelial cells, with and without co-corrector; format: cell-based; conditions: normalized to DMSO and positive control; for % Activity at 10 μM (Ieq*): bronchial epithelial cells from CF patients homozygous for CFTR ΔF508, 10 μM test compound for 24 h, without co-corrector, Ieq based on the maximum current; for % Activity at 3 μM with co-corrector (Ieq): bronchial epithelial cells from CF patients homozygous for CFTR ΔF508, 3 μM test compound for 24 h
T1 construct: bronchial epithelial cells isolated from CF patients homozygous for the CFTR ΔF508 mutation; McGill University; Asterand; University of North Carolina hAEC-CF; host or cells: primary human bronchial epithelial cells from CF patients homozygous for ΔF508
T1 sequence (P13569 with tags, fused parts or gaps DEL508-508): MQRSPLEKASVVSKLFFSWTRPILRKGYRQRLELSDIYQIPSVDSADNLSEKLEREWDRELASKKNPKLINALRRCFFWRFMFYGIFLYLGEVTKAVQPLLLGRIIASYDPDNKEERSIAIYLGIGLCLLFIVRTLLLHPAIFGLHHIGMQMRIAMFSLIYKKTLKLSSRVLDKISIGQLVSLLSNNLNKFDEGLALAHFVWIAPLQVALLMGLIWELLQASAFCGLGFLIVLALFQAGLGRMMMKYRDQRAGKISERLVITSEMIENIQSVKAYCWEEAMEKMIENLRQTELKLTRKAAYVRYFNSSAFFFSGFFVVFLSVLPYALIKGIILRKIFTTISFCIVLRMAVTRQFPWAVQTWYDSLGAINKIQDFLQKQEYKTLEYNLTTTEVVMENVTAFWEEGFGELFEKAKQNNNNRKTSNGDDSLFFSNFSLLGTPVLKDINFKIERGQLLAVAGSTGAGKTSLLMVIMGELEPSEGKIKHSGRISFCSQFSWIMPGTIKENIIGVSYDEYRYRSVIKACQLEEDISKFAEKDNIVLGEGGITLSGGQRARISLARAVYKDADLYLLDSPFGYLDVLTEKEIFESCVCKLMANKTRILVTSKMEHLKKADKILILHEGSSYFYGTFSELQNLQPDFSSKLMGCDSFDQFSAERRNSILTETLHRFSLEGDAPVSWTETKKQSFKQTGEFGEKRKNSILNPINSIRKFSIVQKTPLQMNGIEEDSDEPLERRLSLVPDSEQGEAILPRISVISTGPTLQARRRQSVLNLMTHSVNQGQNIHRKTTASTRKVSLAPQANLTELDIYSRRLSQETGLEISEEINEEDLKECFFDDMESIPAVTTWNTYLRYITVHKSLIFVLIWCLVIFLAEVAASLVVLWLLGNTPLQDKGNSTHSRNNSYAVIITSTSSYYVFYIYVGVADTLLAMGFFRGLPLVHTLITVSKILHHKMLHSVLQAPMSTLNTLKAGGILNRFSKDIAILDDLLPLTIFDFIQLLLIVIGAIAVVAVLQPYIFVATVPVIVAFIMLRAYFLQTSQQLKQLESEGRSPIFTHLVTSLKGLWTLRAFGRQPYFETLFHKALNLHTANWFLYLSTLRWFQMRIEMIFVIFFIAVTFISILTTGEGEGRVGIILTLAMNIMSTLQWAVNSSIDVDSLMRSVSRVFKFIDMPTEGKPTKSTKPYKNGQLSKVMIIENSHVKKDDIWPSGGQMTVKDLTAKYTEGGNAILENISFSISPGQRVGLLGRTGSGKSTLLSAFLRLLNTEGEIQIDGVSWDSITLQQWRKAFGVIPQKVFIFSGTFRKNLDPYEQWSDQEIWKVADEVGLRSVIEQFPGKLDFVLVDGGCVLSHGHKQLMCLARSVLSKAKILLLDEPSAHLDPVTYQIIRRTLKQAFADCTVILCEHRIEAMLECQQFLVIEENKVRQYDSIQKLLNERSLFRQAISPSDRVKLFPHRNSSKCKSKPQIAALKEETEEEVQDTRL
Procedure: Primary Bronchial Epithelial Cells Protocol
The TECC (Tranepithelial Clamp Circuit, EP-design) assay measures the functionality of the cystic fibrosis Transmembrane Conductance regulator (CFTR) by measuring the short circuit current (Isc) generated over the basolateral and apical membrane of lung epithelial cells. In TECC the transepithelial potential PD and transepithelial resistance (Rt)) are measured in an open circuit and transformed to Ieq using Ohm's law. 24 Wells can be measured simultaneously allowing a higher throughput compared to Ussing chambers.
For this purpose, bronchial epithelial cells isolated from CF patients homozygous for the CFTR ΔF508 mutation (hAEC-CF, Epithelix, Geneva, Switzerland; McGill University, Montreal, Qc; Asterand, Detroit, Mich.; University of North Carolina, Chapel Hill, N.C.) are plated on type IV collagen-coated Transwell® supports (Costar). Human airway epithelia are generated by provision of an air-liquid interface for 21 days to form well-differentiated polarized cultures that resemble in vivo pseudo-stratified ciliated epithelium (Fulcher, M. L., Gabriel, S., Burns, K. A., Yankaskas, J. R., Randell, S. H., 2005. Well-differentiated human airway epithelial cell cultures. Methods Mol. Med. 107, 183-206). The differentiated cells are treated with test corrector compound(s) (corrector alone or in combination with co-corrector, 4-[(2R,4R)-4-({[1-(2,2-difluoro-1,3-benzodioxol-5-yl)cyclopropyl]carbonyl}amino)-7-methoxy-3,4-dihydro-2H-chromen-2-yl]benzoic acid (G924806/A-1618261) (“acute”) or test corrector compounds, co-corrector and potentiator, N-(3-carbamoyl-5,5,7,7-tetramethyl-4,7-dihydro-5H-thieno[2,3-c]pyran-2-yl)-1H-pyrazole-5-carboxamide GLPG1837, (“chronic”) for 24 hours basolaterally to allow sufficient expression of properly folded CFTR protein on the membrane. All compound plates contained negative controls (DMSO) and positive controls (0.15 μM, 4-[(2R,4R)-4-({[1-(2,2-difluoro-1,3-benzodioxol-5-yl)cyclopropyl]carbonyl}amino)-7-(difluoromethoxy)-3,4-dihydro-2H-chromen-2-yl]benzoic acid).
For electrophysiological recording of the “acute” experiments, the human airway epithelia are mounted in the TECC heating plate and kept at 37° C. The epithelia are bathed in a NaCl-Ringer solution (120 mM NaCl, 25 mM NaHCO3, 1.2 mM CaCl2, 1.2 mM MgCl2, 0.8 mM KH2PO4, 0.8 mM K2HPO4, pH 7.4, 5 mM glucose) on both the basolateral and apical sides. Apical amiloride is used to inhibit the endogenous epithelial sodium channel (ENaC) currents while forskolin is applied on both apical and basolateral side to stimulate CFTR. CFTR activity is measured by addition of forskolin followed by addition of a potentiator, N-(3-carbamoyl-5,5,7,7-tetramethyl-4,7-dihydro-5H-thieno[2,3-c]pyran-2-yl)-1H-pyrazole-5-carboxamide, on both sides. Measurements are done during a 20 minute timeframe with recordings every 2 minutes. The increase in Ieq is used as a measure for the increased CFTR activity, EC50 values can be generated by measuring impact of different concentrations of compound on Ieq on primary cells, for this purpose each transwell is treated with a different compound concentration for 24 hours. Inhibitor-172, an inhibitor specific for CFTR, is used to test the specificity of the tested compounds. Raw data were normalized to percentage activity values using the equation: 100×(Sample−Negative control)/(Positive control−Negative Control).

[2] = target: T1, CFTR ΔF508; experiment: Chronic TECC assay on primary bronchial epithelial cells (corrector, co-corrector and potentiator); format: cell-based; conditions: chronic TECC, Ieq = calculations based on the maximum current, with co-corrector and potentiator, 24 hours; for EC50: read-out: EC50 (nM) (Ieq)
Procedure, shortened: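 Differentiated airway epithelia from CFTR ΔF508-homozygous CF patients (21 days air-liquid interface) were treated basolaterally for 24 h with corrector plus co-corrector and potentiator; compounds were re-added before TECC recording at 37 °C in NaCl-Ringer, pH 7.4. Forskolin-stimulated Ieq increase after apical amiloride, normalized to DMSO and positive controls; EC50 from concentration series.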

Row | SMILES | % Activity at 10 μM (Ieq*) [1] [%] | % Activity at 3 μM with co-corrector (Ieq) [1] [%] | % Activity at 1 μM (Ieq*) [2] [%] | EC50 [2] [nM]
1 | CC(C)c1nn(-c2cccc(N3CCOCC3)c2)c2nc(C(=O)O)cc(-c3ccc(N(C)C)nc3)c12 [compound 89, 4-[6-(dimethylamino)pyridin-3-yl]-1-[3-(morpholin-4-yl)phenyl]-3-(propan-2-yl)-1H-pyrazolo[3,4-b]pyridine-6-carboxylic acid] | 147.6 |  |  | 
2 | Cc1nn(-c2ccccc2)c2nc(C(=O)O)cc(N3CCCCC3)c12 [compound 123, 3-methyl-1-phenyl-4-(piperidin-1-yl)-1H-pyrazolo[3,4-b]pyridine-6-carboxylic acid] | 100.6 |  |  | 
3 | CC(C)c1nn(-c2cccc(N3CCC3)c2)c2nc(C(=O)O)cc(-c3ccc(N4CCOCC4)cc3)c12 [compound 151, 1-[3-(azetidin-1-yl)phenyl]-4-[4-(morpholin-4-yl)phenyl]-3-(propan-2-yl)-1H-pyrazolo[3,4-b]pyridine-6-carboxylic acid] | 100.6 |  |  | 
4 | CC(C)c1nn(C2CCCCC2)c2nc(C(=O)O)cc(-c3ccc(N(C)C4CCOCC4)nc3)c12 [compound 169, 1-cyclohexyl-4-{6-[methyl(oxan-4-yl)amino]pyridin-3-yl}-3-(propan-2-yl)-1H-pyrazolo[3,4-b]pyridine-6-carboxylic acid] |  | 279.1 |  | 
5 | Cc1cccc(-n2nc(C(C)C)c3c(N4CCC(CO)CC4)cc(C(=O)O)nc32)c1 [compound 213, 4-[4-(hydroxymethyl)piperidin-1-yl]-1-(3-methylphenyl)-3-(propan-2-yl)-1H-pyrazolo[3,4-b]pyridine-6-carboxylic acid] |  | 199.4 | 390 | > 300
6 | N#CC1CCN(c2ccc(-c3cc(C(=O)O)nc4c3c(C3CCC3)nn4C3CCCCC3)cn2)CC1 [compound 220, 4-[6-(4-cyanopiperidin-1-yl)pyridin-3-yl]-3-cyclobutyl-1-cyclohexyl-1H-pyrazolo[3,4-b]pyridine-6-carboxylic acid] |  | 122.9 | 720 | 120
7 | CC(C)c1nn(-c2cccc(N3CCCC3)c2)c2nc(C(=O)O)cc(-c3ccc(N4CCC(C#N)CC4)nc3)c12 [compound 222, 4-[6-(4-cyanopiperidin-1-yl)pyridin-3-yl]-3-(propan-2-yl)-1-[3-(pyrrolidin-1-yl)phenyl]-1H-pyrazolo[3,4-b]pyridine-6-carboxylic acid] |  | 221.3 |  | 
